Data published in patent US11753403B2, “EIF4E inhibitors and uses thereof” (PIC Therapeutics, Inc., priority 2020, dated 2023).

Molecular target: Human eIF4E (aa 28-217) / biotin labeled 4G2 peptide (Homo sapiens (Human), UniProt P06730)
Test: Human eIF4E/4G2 binding assay (TR-FRET)
Conditions: Human eIF4E/4G2 TR-FRET binding assay; head says IC50, legend says EC50
Summary of the method: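 Refolded His-tagged human eIF4E (aa 28-217), 82.5 nM working stock, preincubated 4 h at RT with compounds (10-point 2-fold series) in NaPi pH 6.5 buffer with DTT and gamma globulin. Biotin-4G2 peptide then added for 20 min, followed by Eu-streptavidin/APC-anti-His for 20 min; TR-FRET 665/615 nm ratio normalized, IC50 fitted.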

Chain of Human eIF4E (aa 28-217) / biotin labeled 4G2 peptide (P06730 28-217): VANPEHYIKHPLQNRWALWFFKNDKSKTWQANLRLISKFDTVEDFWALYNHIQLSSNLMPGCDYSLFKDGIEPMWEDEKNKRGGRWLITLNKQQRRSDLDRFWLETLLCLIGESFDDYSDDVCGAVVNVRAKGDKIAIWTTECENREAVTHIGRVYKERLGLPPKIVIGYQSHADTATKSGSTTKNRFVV

| Compound | IC50 [nM] |
| --- | --- |
| CC(C)c1sc(N(CCC(=O)O)Cc2ccccc2)nc1-c1ccc(F)c(F)c1 [I-77] | 1000 to 10000 |
| O=C(O)CCN(Cc1ccccc1)c1nc(-c2ccc(Cl)c(Cl)c2)c(Cn2ccnc2)s1 [I-122] | 1000 to 10000 |
| COc1ccccc1CN(CCC(=O)O)c1nc(-c2ccc(Cl)c(Cl)c2)c(CC(C)C)s1 [I-49] | ≤ 1000 |
| CC(C)Cc1sc(N(CCC(=O)N2CCC(CN)CC2)Cc2ccccc2)nc1-c1ccc(Cl)c(Cl)c1 [I-135] | 1000 to 10000 |
| CC(C)Cc1sc(N2CCN(C(=O)OC(C)C)C(C(=O)O)C2)nc1-c1ccc(Cl)c(Cl)c1 (stereo not shown) [I-253, 4-(4-(3,4-dichlorophenyl)-5-isobutylthiazol-2-yl)-1-(isopropoxycarbonyl)piperazine-2-carboxylic acid] | 1000 to 10000 |
| Cc1cc(CC(CNc2nc(-c3ccc(Cl)c(Cl)c3)c(CC(C)C)s2)C(=O)O)cc(C)n1 (stereo not shown) [I-150] | 1000 to 10000 |
| CC(C)c1sc(NCC(Cc2ccc3[nH]ccc3c2)C(=O)O)nc1-c1ccc(Cl)cc1 (stereo not shown) [I-46] | 1000 to 10000 |
| CC(C)Cc1sc(NCC(Cc2ccncn2)C(=O)O)nc1-c1ccc(Cl)c(Cl)c1 (stereo not shown) [I-161] | 1000 to 10000 |
| CSc1ccc(CC(CNc2nc(-c3ccc(Cl)c(Cl)c3)c(CC(C)C)s2)C(=O)O)cc1 (stereo not shown) [I-174] | ≤ 1000 |
| CC(C)Cc1sc(NCC(Cc2ccnc(O)c2)C(=O)O)nc1-c1ccc(Cl)c(Cl)c1 (stereo not shown) [I-164] | 1000 to 10000 |
| CC(C)c1sc(NCC(Cc2cccc(O)c2)C(=O)O)nc1-c1ccc(Cl)c(Cl)c1 (stereo not shown) [I-4] | 1000 to 10000 |
| CC(=O)NS(=O)(=O)CCN(Cc1ccccc1)c1nc(-c2ccc(Cl)c(Cl)c2)c(CC(C)C)s1 [I-99, N-(2-(benzyl(4-(3,4-dichlorophenyl)-5-isobutylthiazol-2-yl)amino)ethylsulfonyl)acetamide] | 1000 to 10000 |
| CNC(=O)N1CCN(c2nc(-c3ccc(Cl)c(Cl)c3)c(CC(C)C)s2)CC1C(=O)O (stereo not shown) [I-251, 4-(4-(3,4-dichlorophenyl)-5-isobutylthiazol-2-yl)-1-(methylcarbamoyl)piperazine-2-carboxylic acid] | 1000 to 10000 |
| O=C(O)CCN(Cc1ccccc1)c1nc(-c2ccc(Cl)c(Cl)c2)c(CN2CCC2)s1 [I-130] | > 10000 |
| CC(C)Cc1sc(N(CCCCN(C)C)CCC(=O)O)nc1-c1ccc(Cl)c(Cl)c1 [I-147, 3-((4-(3,4-dichlorophenyl)-5-isobutylthiazol-2-yl)(4-(dimethylamino)butyl)amino) propanoic acid] | 1000 to 10000 |
| CC(C)Cc1sc(N(CCC(=O)O)CC2CC2)nc1-c1ccc(Cl)c(Cl)c1 [I-105] | 1000 to 10000 |
| CC(C)Cc1sc(N(CCC(=O)O)Cc2cccnc2)nc1-c1ccc(Cl)c(Cl)c1 [I-62] | 1000 to 10000 |
| CC(C)Cc1sc(N(CCCCCCN)CCC(=O)O)nc1-c1ccc(Cl)c(Cl)c1 [I-148] | > 10000 |
| CC(C)Cc1sc(N(CCC(=O)O)Cc2ccccc2)nc1-c1cccc(F)c1 [I-82] | 1000 to 10000 |
| COc1cccc(-c2nc(NCC(CCc3ccccc3)C(=O)O)sc2C(C)C)c1 (stereo not shown) [I-33] | 1000 to 10000 |

Continued, values first:

| IC50 [nM] | Compound |
| --- | --- |
| ≤ 1000 | CC(C)Cc1sc(Nc2ncc(-c3cccs3)cc2C(=O)O)nc1-c1ccc(OCC2CC2)c(Cl)c1 [I-332] |
| ≤ 1000 | CC(C)Cc1sc(Nc2cc(F)cc(C(=O)O)c2)nc1-c1ccc(Cl)c(Cl)c1 [I-212] |
| 1000 to 10000 | CC(C)Cc1sc(Nc2ccsc2C(=O)NCCN)nc1-c1ccc(Cl)c(Cl)c1 [I-276, N-(2-aminoethyl)-3-(4-(3,4-dichlorophenyl)-5-isobutylthiazol-2-ylamino)thiophene-2-carboxamide] |
| 1000 to 10000 | CC(C)Cc1sc(Nc2ccnc(C(=O)O)c2)nc1-c1ccc(Cl)c(Cl)c1 [I-220] |
| 1000 to 10000 | CC(C)Cc1sc(Nc2nnccc2C(=O)O)nc1-c1ccc(Cl)c(Cl)c1 [I-239] |
| ≤ 1000 | CC(C)Cc1sc(Nc2ccc(Cl)c(C(=O)O)c2)nc1-c1ccc(Cl)c(Cl)c1 [I-208] |
| ≤ 1000 | CC(C)Cc1sc(Nc2ccsc2C(=O)O)nc1-c1ccc(Cl)c(Cl)c1 [I-256] |
| ≤ 1000 | COc1ccc(-c2nc(Nc3ncc(C(F)(F)F)cc3C(=O)O)sc2CC(C)C)cc1Cl [I-325] |
| ≤ 1000 | CSc1cccc(CC(CNc2nc(-c3ccc(Cl)c(Cl)c3)c(CC(C)C)s2)C(=O)O)c1 (stereo not shown) [I-171] |
| ≤ 1000 | CC(C)Cc1sc(NCC(Cc2cccc(F)c2)C(=O)O)nc1-c1ccc(Cl)c(Cl)c1 (stereo not shown) [I-22] |
| 1000 to 10000 | CC(C)Cc1sc(Nc2ccncc2C(=O)O)nc1-c1ccc(Cl)c(Cl)c1 [I-254] |
